Results published in publication PMC11406233 (Proceedings of the National Academy of Sciences of the …, 2024).
Where two headings read alike, the source gives them in different places.

Key:
SCoV2^WK521WT [1] = experiment: microbe, parasite or virus in culture; assay type: cell-based; conditions: for EC50: Severe acute respiratory syndrome coronavirus 2, read-out: EC50 from cell-based assay
SCoV2^WK521WT [2] = experiment: microbe, parasite or virus in culture; conditions: Severe acute respiratory syndrome coronavirus 2, VeroE6/TMPRSS2, read-out: EC50 from cell-based assay

Compound: CC(C)(C)[C@H](NC(=O)C(F)(F)F)C(=O)N1C[C@H]2[C@@H]([C@H]1C(=O)N[C@H](C#N)C[C@@H]1CCNC1=O)C2(C)C [nirmatrelvir, reference compound]
- EC50 (SCoV2^WK521WT [1]): 52 nM
- EC50 (SCoV2^WK521WT [2]): 1500 nM

Compound: CC(C)(C)[C@H](NC(=O)C(F)(F)F)C(=O)N1C[C@H]2[C@@H]([C@H]1C(=O)N[C@@H](C[C@@H]1CCNC1=O)C(=O)c1nc3c(F)cccc3s1)C2(C)C [TKB245]
- Difference in the EC50 values of NIR and TKB245 (SCoV2^WK521WT [1]): 34.7 fold
- EC50 (SCoV2^WK521WT [1]): 1.5 nM
- EC50 (SCoV2^WK521WT [2]): 330 nM

Compound: COc1cccc2[nH]c(C(=O)N[C@@H](CC(C)C)C(=O)N[C@@H](C[C@@H]3CCNC3=O)C(=O)c3nc4ccccc4s3)cc12 [5h]
- EC50 (SCoV2^WK521WT [1]): 200 ± 90 nM
- EC50 (SCoV2^WK521WT [2]): 4100 nM
